Reference: patent US8822182B2, “Chimeric antigen-specific T cell-activating polypeptides” (Mayo Foundation for Medical Education and Research, priority 2001, dated 2014)

Key:
RMA-S cells = experiment: Flow cytometry of surface H-2K^b/OVA257 complexes on RMA-S cells with or without furin inhibitor; type: cell-based; conditions: 18 hours, 25D1.16 antibody, FIG. 13
Description: Aliquots of RMA-S cells were cultured without or with the furin inhibitor decRVKR-CMK (60 μM) at 37° C. After one hour of culture, 4 multiple epitope-containing TA (TA3-A, TA3-B, TA3-C, and TA3-D) or OVA257 were each added to separate cultures, which were then incubated for a further 18 hours. The cells were then harvested and the relative amounts of H-2K^b/OVA257 complexes expressed on the surfaces of the cells were assessed by fluorescence flow cytometry using the 25D1.16 antibody (FIG. 13). […] These findings underscore the importance of furin in processing of antigens to generate peptide epitopes that bind to MHC class I molecules and are then recognized by appropriate peptide epitope-specific CTL.

[1] = test system: TAP-competent cells expressing H-2K^b (L-K^b); experiment: Immunofluorescence and confocal microscopy of H-2K^b/OVA257 complexes, TAP-competent cells; type: cell-based, mouse; conditions: 25D1.16 staining
Description: (§1) T2/K^b or L-K^b cells were cultured overnight on poly-lysine treated glass coverslips. The culture medium was discarded, and the cells were gently washed with PBS. The cells were pre-incubated with serum-free AIM-V medium at 37° C. for 30 minutes and then incubated with peptide/TA solutions at the indicated concentrations for 12 hour at 37° C. After peptide loading, the cells were washed and fixed with 2% formaldehyde for 20 minutes at room temperature. For indirect immunofluorescence, fixed cell monolayers were permeabilized with 0.2% Triton X100 in PBS and incubated with PBS containing 5% goat serum to block non-specific protein binding sites. The cells were double-labeled with mouse monoclonal antibody 25D1.16 specific to OVA257/H-2K^b complex and rabbit polyclonal antibody TGN38 (TGN marker) or rabbit anti-calreticulin (ER marker), followed by 1 hour staining with FITC anti-mIgG and TR anti-rIgG as secondary antibodies. After washing, the coverslips were mounted for observation on glass slides using the Prolong Antifade Kit. The stained cells were examined and photographed with a Leica TCS-SL confocal laser-scanning microscope (Bensheim, Germany).
Utilizing the monoclonal antibody 25D1.16 that specifically reacts with H-2K^b/OVA257 complexes and confocal microscopy, the formation and presence of this CTL epitope in permeabilized TAP-competent and TAP-deficient cells expressing H-2K^b was evaluated. […] These cells were also stained with an antibody specific for calreticulin which is localized within the ER.

[2] = test system: Murine dendritic cells (DC); experiment: Persistence in dendritic cells: IFN-γ ELISA of OT-1 CTL cultured with pulsed DC; type: cell-based, mouse; conditions: DC pulsed 10 μM 2 hours, washed, further 48 hours, CTL:DC 10:1 for 24 hours, FIG. 14
Description: Murine dendritic cells (DC) were prepared by culturing C57BL6 mouse (H-2^b) bone marrow […] in the presence of granulocyte macrophage colony stimulating factor (GM-CSF) and interleukin-4 (IL-4) by a method essentially the same as that described by Son et al. [(2002) J. Immunol. Meth. 262:145-157] except that non-adherent cells are removed from the cultures and discarded on day 2 of culture and no density gradient centrifugation step was used. Cells not adhering to the plastic tissue culture vessel at day 6 of culture were harvested and used as DC.
DC were pulsed with either the TA HIVtat-OVA257 (see Table 2) or the peptide epitope OVA257, each at a concentration of 10 μM, for 2 hours at 37° C. The cells were then washed free of the TA or peptide epitope and incubated for a further 48 hours. They were then cultured with cells of the OT-1 CTL clone (specific for H-2K^b/OVA257) at a CTL to DC ratio of 10:1 for 24 hours. Supernatants were then removed from the cultures and the relative amounts of IFN-γ in various dilutions of each supernatant were measured by ELISA (FIG. 14). […] These findings indicate that a peptide epitope persists in DC for a longer period of time when taken up by DC in the form of a TA than when taken up by DC in the form of the peptide epitope per se.

[3] = test system: TAP-deficient cells (T2/K^b); experiment: Immunofluorescence and confocal microscopy of H-2K^b/OVA257 complexes, T2/K^b cells; type: cell-based, human
Description: as §1
An antibody specific for trans-Golgi network (TGN38) was used to test whether H-2K^b/OVA257 complexes could also be detected in the trans-Golgi network of cells incubated with TA peptides. […] In these cells, antibody TGN38 stained brightly a structure corresponding to the trans-Golgi. […] These observations reinforce the findings that TA peptides need to penetrate cells in order to create MHC class I/peptide complexes. In addition, these complexes are observed in both the ER and trans-Golgi, even in TAP-deficient cells.

[4] = test system: TAP-deficient T2/K^b cells; experiment: Flow cytometry of surface H-2K^b/OVA257 complexes (25D1.16) with protease inhibitors, T2/K^b cells; type: cell-based, human; conditions: decRVKR-CMK 60 μM, antigen 10 μM overnight, FIGS. 8D-8F
Description: (§2) The effects of protease inhibitors on antigen processing and presentation were evaluated by analysis of 25D1.16 staining on different antigen-pulsed EL-4 or T2/K^b cells using flow cytometric analysis. In brief, EL-4 or T2/K^b cells were washed twice with serum-free AIM-V medium (Life Technologies, Rockville, Md.), pre-treated with protease inhibitors (10 μM lactacycstin, 100 μM pepstatin or 60 μM decRVKR-CMK) for 30 minutes and then pulsed with equimolar concentrations of different (as indicated) peptides at 37° C. overnight with the continuous presence of the corresponding protease inhibitors. The serum-free AIM-V medium was used in order to exclude the potential involvement of serum proteases during the peptide-pulsing process. After washing the cells twice with FACS buffer (PBS (phosphate buffered saline) supplemented with 2% FBS and 0.2% sodium azide), peptide-loaded APC were stained with 25D1.16 antibody followed by FITC anti-mIgG for flow analysis. Untreated EL-4 and T2/K^b cells were pulsed with peptides and stained as controls.
The data described above indicate that TA can be processed in various cellular compartments to produce small peptide epitopes that subsequently associate with MHC class I molecules and the resulting peptide-MHC class I complexes are then transported to the cell surface. Antigen processing could take place: (1) in the cytoplasm, via proteasomal degradation followed by TAP transport; (2) within the ER, where peptide trimming via an aminopeptidase could occur; (3) in the trans-Golgi, where processing of antigens through proteases such as furin can occur; and/or (4) in early endocytic compartments, where peptides that could either bind to recycling MHC class I molecules or leak into other compartments of the MHC class I pathway can be generated. Utilizing antibody 25D1.16, we studied the effects of various inhibitors of antigen processing in the formation of H-2K^b/OVA257 surface complexes by peptides OVA257-HIVtat and HIVtat-OVA257.

TAP-competent EL-4 cells = experiment: Flow cytometry of surface H-2K^b/OVA257 complexes (25D1.16) with protease inhibitors, EL-4 cells; type: cell-based, mouse; conditions: decRVKR-CMK 60 μM, antigen 10 μM overnight, FIGS. 8A-8C
Description: as §2

[5] = test system: TAP deficient RMA-S targets; type: cell-based, mouse; conditions: ConA-activated CTL, 10 μM overnight
C57BL6 mice = type: in vivo, mouse; conditions: 40 μg immunogen in IFA plus CpG adjuvant; spleen cells restimulated 7 days with peptide epitope; RMA-S targets, FIGS. 11A-11C

SIINFEKL [OVA257, reference compound]
cell-surface H-2K^b/OVA257 complexes after exposure of cells (RMA-S cells): detectable levels
presence of H-2K^b/OVA257 complexes in permeabilized cells [1]: abundant
IFN-γ produced by OT-1 CTL cultured with pulsed DC [2]: insignificant levels of IFN-γ
location of H-2K^b/OVA257 complexes on the cell-surface ([3]; 25D1.16 staining): most of the H-2K^b/OVA257 complexes were on the cell-surface
localization of H-2K^b/OVA257 complexes to the trans-Golgi ([3]; 25D1.16 superimposed with TGN38 staining): no localization to the trans-Golgi
effect of furin inhibitor decRVKR-CMK on expression of surface H-2K^b/OVA257 complexes (decrease) [4]: no effect was observed
effect of furin inhibitor decRVKR-CMK on expression of surface H-2K^b/OVA257 complexes (decrease) (TAP-competent EL-4 cells): no effect was observed

IKAVYNFATCGRVKRSIYRYYGLRVKRSIINFEKLAAARKKRRQRRR [TA3-A]
sensitization of targets for killing by OVA257-specific CTL ([5]; FIG. 9 left panel): could effectively kill targets sensitized
sensitization of targets for killing by 2C-specific CTL ([5]; FIG. 9 middle panel): could effectively kill targets sensitized
induction of CTL responses by in vivo vaccination (C57BL6 mice): at least as effective as the peptide mixture
